Results on one molecule are retold here after patent US20090041760A1, “RETROVIRAL IMMUNOTHERAPY” (priority 2000, published 2009).

Like-named read-outs stand apart in the source and are kept apart here.

The subject of assay [1] is LP-BM5 murine leukemia virus (MuLV). Description: MAIDS development in LP-BM5 infected mice after a single dose of vinblastine at different times post infection. It counts as in vivo, C57BL/6 mice. The source says: A murine AIDS (MAIDS) pathology induced by LP-BM5 murine leukemia virus (MuLV) in susceptible mice is an effective tool to investigate mechanisms of retrovirus-induced immunodeficiency. […] Infection of a susceptible strain such as C57BL/6 mice with LP-BM5 leads to chronic splenomegaly, hypergammaglobulinaemia and development of immunodeficiency in both T and B cells. In vitro, there is a progressive impairment in the responsiveness of T-cells and B-cells to mitogenic or specific antigenic stimuli. In vivo, infected mice become increasingly susceptible to challenge with a variety of opportunistic organisms and can develop B-cell lymphoma. Deaths are first observed at 8-10 weeks post-infection (pi), and all mice die within 24 weeks (FIG. 1). These alterations in immune function reflect complex changes in the phenotype and function of all components of the immune network.
The treatment with a single dose of the anti-mitotic agent vinblastine (Vb) at different times pi is able to prevent the development/progression of MAIDS. […] Clearly, the Vb treatment is remarkably therapeutic when administered at 6 hr or 14 days pi with 100% ( 10/10) and 74% ( 20/27) of mice, respectively, showing no signs of MAIDS development at 10 weeks pi (as determined by spleen weight, histology and FACS analysis). […] Additional experiments have provided results of 100% of mice having no signs of MAIDS development at least 12 months after Vb treatment 14 days pi (data not shown). Although not as pronounced as the protection seen after day 14 treatment, moderate protection from MAIDS development was still observed. […] The total protection from MAIDS development seen in mice given Vb at 6 hrs pi is not unexpected as the virus replicates in actively replicating cells which are the target of the anti-mitotic drug thus any cells infected with the virus are killed by the Vb preventing the virus from rapidly establishing an infection in the host. However, the highly protective effect observed after a single treatment with Vb at 14 days pi is quite remarkable as, by this stage, the viral infection is well established and the early disease processes are well underway. We propose that this highly therapeutic effect is due to the Vb targeting a particular subset of immune regulator cells during their expansion phase and thereby altering the immune response to the viral infection. […] This leads to long term disease free survival for many months post-infection and treatment.
Spleens from the Day 14 pi Vb treated mice as well as infected and uninfected control mice were weighed and examined histologically. The splenic architecture of all MAIDS infected mice was profoundly disorganised as previously reported (Hartley et al., 1989).

Assay [2] deals with MAIDS virus. Nature of the assay: Rechallenge with MAIDS virus following protective vinblastine therapy. In kind it is in vivo, mice. As to conditions: Vb at day 14 pi, rechallenge at 3 or 8 weeks post Vb treatment. The source says: To determine if mice protected from MAIDS by the day 14 pi Vb treatment develop an immune response which would then protect them from a subsequent rechallenge with the MAIDS virus groups of mice, given the Vb therapy at day 14 pi, were rechallenged with the MAIDS virus at 3 or 8 weeks post Vb treatment. […] This is not an unexpected result as the dominant immunosuppression by the regulator population of cells would have been restored as a consequence of the immune effector response to the second (untreated) infection.

Assay [3] has as its system CD4+, CD8+ and CD25+CD4+ T cells of spleen. Description: FACS analysis of spleen cells following Vb therapy on day 14 post infection. It counts as in vivo, mice. On the procedure:
FACS analysis of CD4^+ and CD8^+ T cells prepared from spleens of mice treated with Vb on Day 14 pi was performed (FIG. 6). CD25^+CD4^+ T cells were also examined as they have recently been identified as having an important regulatory function in mouse models of autoimmune disease and tumour immunology (Takahashi et al., 1998; Shimizu et al., 1999). It is possible that these cells may play a role in the regulation of the immune response to MAIDS. Day 14 pi and uninfected control mice were given Vb therapy and the spleens collected at 48 hours post Vb treatment.

For assay [4], the system named is MAIDS virus. Description: Spleen cell transfer into MAIDS infected, day 14 Vb treated mice. It counts as in vivo. The source says:
The experiments illustrated in FIG. 7 were designed to determine if a single dose of Vb, administered at 14 days pi, is eliminating a population of expanding CD4^+regulator T cells and thereby releasing effector cells from down-regulation and clearing the host of the MAIDS virus.
Mice were infected with MAIDS, received day 14 pi Vb treatment and then received an adoptive transfer of ~10^7 spleen cells from donor mice prepared as outlined in FIG. 7. For each experiment [designated (I), (II) and (III)] groups consisted of 7 recipient mice and 9 donor mice. Mice in Group I received whole spleens from infected mice that had not received any Vb treatment. Mice in Group II received whole spleen cell preparations, from infected mice, that had been depleted of CD4^+ cells using a FACS cell sorter after staining with fluorochrome-labeled anti-CD4 monoclonal antibody. […] Mice in Group III received whole spleens from infected donor mice that also received Vb treatment on day 14 pi.

Assay [5] has as its system MAIDS virus. Nature of the assay: Adoptive transfer of CD4+ CD25+/- cells into MAIDS infected, day 14 Vinblastine treated mice. It counts as in vivo. As to conditions: uninfected donor cells into MAIDS-infected day 14 Vb-treated recipients; n=5. The source says: An adoptive transfer experiment was designed to directly test the hypothesis that CD4+ CD25+ T cells are functioning as the regulator cells in the murine AIDS model. The same approach used to determine that the regulator cells are CD4+ T cells was used to test whether the CD4+ CD25+ subset are the target of day 14 Vinblastine treatment. […] 2.0×10^6 cells of the regulator CD4+ CD25+ phenotype were purified from single cell suspensions of donor spleens using MACS beads (Miltenyi Biotec) using two positive selection steps. The cells were then tested for purity by flow cytometry (both CD4+ CD25+ and CD4+ CD25− fractions were of >90% purity) and viability using trypan blue exclusion prior to transfer into uninfected (control) and MAIDS infected day 14 Vinblastine treated mice. CD4+ CD25− cells were also transferred to allow that the regulator cells may not present in the CD25+ fraction and also to allow for the possibility that these putative regulator cells may lose CD25 expression as they expand and become activated as was reported by Gavin et al., 2002.
Mice receiving adoptive transfer of cells were either uninfected (control) or MAIDS infected and day 14 Vinblastine treated to examine whether the transfer of cells would result in disease progression. […] Disease progression was assessed by spleen weight at 10 weeks post MAIDS infection.

Assay [6] relates to murine T cell lymphoma. The conditions noted are these: cited from earlier work.

On to `CC[C@]1(O)C[C@@H]2CN(CCc3c([nH]c4ccccc34)[C@@](C(=O)OC)(c3cc4c(cc3OC)N(C)[C@H]3[C@@](O)(C(=O)OC)[C@H](OC(C)=O)[C@]5(CC)C=CCN6CC[C@]43[C@@H]65)C2)C1` [Vb, vinblastine], for which, in assay [1] (Vb at day 14 pi, 4/5 mice), the “mice protected from any splenomegaly at 20 weeks pi” value was found to be 80%. Further, the “mice having no signs of MAIDS development at least 12 months after treatment” value in assay [1] (Vb treatment 14 days pi, additional experiments, data not shown) is 100%. In addition, in assay [1] (day 14 pi Vb treated mice with normal spleen weights (below 0.25 g)), the “splenic architecture (histology) at 10 weeks pi” value is recorded as “indistinguishable from that of uninfected control mice”. The “FACS analysis of spleen cells: cellular proportions (CD4+, CD8+ and B cells) and distributions at 10 weeks pi” value in assay [1] (day 14 pi Vb treated mice, preliminary, data not shown) was “like those observed in normal uninfected mice”. The “mice showing no signs of MAIDS development at 10 weeks pi (spleen weight, histology, FACS analysis)” value in assay [1] (single 6 mg/kg i.p. dose at 6 hr pi, 10/10 mice) came to 100%; in assay [1] (single 6 mg/kg i.p. dose at 14 days pi, 20/27 mice) it was 74%. For the same molecule, in assay [1] (single 6 mg/kg i.p. dose at 6 days pi, 6/13 mice), the “mice showing protective effect (no signs of MAIDS) at 10 weeks pi” value was 46%. The “protection against MAIDS development” value in assay [1] (single 6 mg/kg i.p. dose at day 2 pi) and in assay [1] (single 6 mg/kg i.p. dose at day 7 pi) was “no protection against MAIDS development” throughout. Further, the “protection from viral rechallenge (splenomegaly, lymphadenopathy at 20 weeks)” value in assay [2] is “not protected from viral rechallenge”. The “cell subsets targeted in MAIDS infected mice (uninfected to infected ratios)” value in assay [3] (CD4+ T cells and CD25+CD4+ T cells, 48 hours post Vb at day 14 pi) is on record as “preferentially targeted”. The “effect on spleen cell subsets” value in assay [3] (spleens collected 48 hours post Vb, day 14 pi and uninfected mice) was “all cell subsets are reduced”. Also, the results for the “protection from MAIDS development after spleen cell transfer” value in assay [4] (Group I: ~10^7 whole spleen cells from MAIDS infected donors without Vb), in assay [4] (Group II: donor spleen cells depleted of CD4+ cells by FACS sorting) and in assay [4] (Group III: spleen cells from infected donors also given day 14 Vb) were “completely prevented Vb from protecting mice from MAIDS development”, “the protective effect of Vb was not overcome” and “fully protected from MAIDS development”, respectively. Also, the “disease progression (spleen weight at 10 weeks post MAIDS infection) after transfer of CD4+ CD25+/- cells” value in assay [5] is listed as “disease progression was readily apparent”. In addition, the effect on tumour entry is given as “enhancement” in assay [6] (single dose at day 10 following tumour inoculation); “regression” in assay [6] (single dose at days 4, 6, 13 and 15 following tumour inoculation).
